Reference: patent publication US20070197510A1, “Nitriles and medicinal compositions containing the same as the active ingredient” (priority 2004, published 2007)

Target: T1, cathepsin K (Homo sapiens, UniProt P43235)
T1 sequence (P43235 115-329): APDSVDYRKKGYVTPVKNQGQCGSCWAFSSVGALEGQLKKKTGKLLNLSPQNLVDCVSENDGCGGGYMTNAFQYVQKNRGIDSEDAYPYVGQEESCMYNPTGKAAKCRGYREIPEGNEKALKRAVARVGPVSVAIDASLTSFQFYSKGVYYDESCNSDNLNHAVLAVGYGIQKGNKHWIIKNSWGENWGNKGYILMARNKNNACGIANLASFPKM
Assay: Measurement of cathepsin K inhibitory activity
Type: biochemical
Details: fluorogenic substrate Boc-Ala-Gly-Pro-Arg-MCA, pH 5.5, 37° C.
Procedure: (i) Measurement of Cathepsin k Inhibitory Activity
65 μL of Cathepsin K Enzyme Reaction Buffer (50 Mmol/L of 2-(N-morpholino)ethanesulfonate, 2 mmol/L of ethylenediaminetetraacetate (EDTA) and 4 mmol/L of dithiothreitol (DTT) were mixed to adjust to pH 5.5), 5 μL of cysteine protease inhibitor solution of several concentrations, 20 μL of synthesized substrate (t-butyloxycarbonyl-L-alanyl-glycyl-L-prolyl-L-arginine-[…]) solution of several concentrations and 10 μL of cathepsin K enzyme solution were mixed and the increase of fluorescence intensity when reacted at 37° C. was measured (λex (excitation wavelength)=355 nm, λem (fluorescence wavelength)=460 nm). As to the substrate and the compound of the present invention, enzyme reactions were carried […]

Row | IC50 [nM] | Structure (SMILES)
1 | 12 | CN1CCN(C(=O)CN2Cc3cnc(C#N)nc3N(CC(C)(C)C)C2=O)CC1 [Example 55(14), 8-(2,2-dimethylpropyl)-6-[2-(4-methyl-1-piperazinyl)-2-oxoethyl]-7-oxo-5,6,7,8-tetrahydropyrimido[4,5-d]pyrimidine-2-carbonitrile]
2 | 2.9 | CC(C)(C)Cn1c2nc(C#N)ncc2c(=O)n1Cc1cccs1 [compound 8(2B), 1-(2,2-dimethylpropyl)-3-oxo-2-(2-thienylmethyl)-2,3-dihydro-1H-pyrazolo[3,4-d]pyrimidine-6-carbonitrile]
